Experimental data taken from patent US10709907B2, “Taurine and aloe synergistic anti-irritant compositions and methods” (Colgate-Palmolive Company, priority 2016, dated 2020).

Tests used:
[1] = tested on: In vitro skin samples (MatTek EpiDerm); test: Cytotoxicity Assay (MTT), cell viability of reconstructed human epidermis; type: cell-based; settings: for MTT (% cell viability): untreated Control = 100
Description: (§1) Two in vitro reconstructed human epidermis models were employed to assess the relative irritation potential of selected test samples, the Cytotoxicity Assay (MTT) and the Irritation Assay (IL-1α Release Assay), described below.
Cytotoxicity Assay (MTT):
Cell damage was evaluated by assessing mitochondrial metabolic activity using 3-[4,5-dimethylthiazol-2-yl]-2,5-diphenyltetrazolium bromide (MTT-reduction assay) upon exposure to the test sample. MTT solution was prepared as 1.0 mg/ml in Phosphate Buffered Saline (PBS) just before usage. In vitro skin samples (MatTek EpiDerm) were treated topically with the test sample for 1 hour in a tissue culture incubator. Following the incubation, skin samples were washed with PBS and placed in 24 well tissue culture plates, and 500 μl of the MTT solutions were added to each well and incubated at 37° C. for 2 hours. The cell survivability was analyzed by measuring the ability of the cell's mitochondria to reduce the colorless MTT to a colored formazan crystalline end product. The reaction was terminated by the removal of the MTT solution from the wells. Addition of 1.0 mL of 0.04M HCl in isopropanol to each well was used to dissolve the intracellular MTT formazan crystals. The contents of each well were mixed gently in an orbital shaker at room temperature for 1 hour and the absorbency at 570 nm was measured by an ELISA plate reader (SpectraMax M5 Multi-Mode Microplate Readers, Molecular Devices, California).

[2] = tested on: IL-1α release, 3D EpiDerm skin models (SIT-200 skin irritation model); test: Irritation Assay (IL-1α Release Assay) by ELISA; type: cell-based, human; settings: untreated Control = 100
Description: as §1
Irritation Assay (IL-1α Release Assay):
To document the skin irritation of Antiperspirant Active Ingredients, we have conducted in vitro experiments using 3D EpiDerm skin models (SIT-200 skin irritation model, MatTek Corporation, Ashland, Mass. 01721). In vitro skin samples were treated topically with the test compound for 1 hour in tissue culture incubator. Following the incubation, skin samples were washed with PBS and placed in a culture medium and continue to incubate for 24 hours. Cell culture media was collected for IL-1α release assay. Higher the IL-1a release means higher the irritation potential. IL-1α release was analyzed by ELISA assay kit (Invitrogen, Grand Island, N.Y. 14072) and (R&D Systems, Minneapolis, Minn. 55413).

## O.O.O.O.O.O.[Al+3].[Cl-].[Cl-].[Cl-] [12% AlCl3, Aluminum Chloride Hexaaqua]
[1]; Example 3, formulated samples
  MTT (% cell viability): 99%
[2]; Example 3, formulated samples
  IL-1α (percentage compared to untreated tissue): 234%

## O.O.O.O.O.O.[Al+3].[Cl-].[Cl-].[Cl-] [14% AlCl3, Aluminum Chloride Hexaaqua]
[1]; Example 1, topical treatment 1 hour
  MTT (% cell viability): 78%
[1]; Example 2
  reduction of cell viability compared to untreated tissue (MTT): 15-20%
[1]; Example 2, topical treatment 1 hour
  MTT (% cell viability): 84%
[2]; Example 1, topical treatment 1 hour, then 24 hours in culture medium
  IL-1α (percentage of the test value for the Control): 345%
[2]; Example 2, topical treatment 1 hour, then 24 hours in culture medium
  IL-1α (percentage compared to untreated tissue): 594%
